From US5631259A, “Cycloalkltriols containing cyclic substituents, processes and intermediate products for their preparation and their use as antiviral and antiparasitic agents” (priority 1991, dated 1997)

Legend:
in vitro = settings: human, hela cells
Pneumocystis carinii = Pneumocystis carinii pneumonia in dexamethasone-treated rats, bronchial lavage evaluated with Pneumocystis carinii test kit; format: in vivo, Spraque-Dawley rats; settings: Monday, Wednesday and Friday for two weeks
Procedure: Pneumocystis carinii--Description of the experiment and results
Spraque-Dawley rats, 200-220 g, were collected into groups of 10 animals and treated with dexamethasone 1.5 mg/ml; of loxacin 0.2 mg/rat via the drinking water in order to induce the outbreak of pneumonia caused by Pneumocystis carinii.
After 7 weeks, the dexamethasone treatment was stopped and the preparation treatment was started.
Treatment was carried out every Monday, Wednesday and Friday for two weeks as follows:
2. pentamidine 20 mg/kg i.m.
3. pentamidine 40 mg/kg i.m.
After the two treatment weeks, a bronchial lavage was performed on the animals under Nembutal anesthesia.
The bronchial suspensions obtained were worked up and evaluated using the Pneumocystis carinii test kit from Progen Biotechnik GmbH, Heidelberg, Germany.

Nc1ncnc2c1ncn2[C@@H]1C[C@H](O)[C@@H](O)[C@H]1O (racemic) [Example 3.1.1, 9-[(1RS,2SR,3RS,4SR)-2,3,4-trihydroxycyclo-pent-1-yl]adenine]
MNTC (in vitro): > 400 µg/mL

O=c1c(Cl)c(Cl)cnn1[C@@H]1C[C@H](O)[C@@H](O)[C@H]1O (racemic) [Example 3.10.1, 4,5-dichloro-2-[(1RS,2SR,3RS,4SR)-2,3,4-trihydroxy-cyclopent-1-yl]pyridazin-3(2H)-one]
Reduction (%) (Pneumocystis carinii; 20 mg/kg oral): 22.9%

CNc1ncnc2c1ncn2[C@H]1C[C@@H](O)[C@H](O)[C@@H]1O (relative stereo) [Example 3.3, N^6-methyl-9-[(1RS,2SR,3RS,4SR)-trihydroxy-cyclopent-1-yl]adenine]
MNTC (in vitro): > 400 µg/mL

N=C(N)c1ccc(OCCCCCOc2ccc(C(=N)N)cc2)cc1 [pentamidine]
Reduction (%) (Pneumocystis carinii; 20 mg/kg i.m.): 37.7%
Reduction (%) (Pneumocystis carinii; 40 mg/kg i.m.): 16.9%
